Measured values: patent US20140045747A1, “METHODS FOR INCREASING AND MOBILIZING HEMATOPOIETIC STEM CELLS” (Cleveland Biolabs, Inc., priority 2007, published 2014)

Columns and labels:
[1] = test system: hematopoietic stem and progenitor cells in peripheral blood; assay: CBLB612 dose dependence of HSC mobilization, peripheral blood of C57Bl mice (Example 6); assay type: in vivo; conditions: C57Bl/6NHsd mice, average, regimen per group b224: AMD3100 5 mg/kg SC 1 h before euthanasia, G-CSF four daily 0.1 mg/kg SC, 612 1.2 mg/kg SC 72 h
Procedure: (§1) The doses were calculated as intended dose/kg of average weight. The adjustment of a dose was accomplished by adjusting the concentration of an article for injection while keeping the injection volume constant.
(§2) According to Table 9, all groups received a single subcutaneous (SC) injection of 5 mg/kg of AMD3100 one hour before euthanasia. Control group 1 was injected with 5 mg/kg of AMD3100 only. Control group 2 was treated with four daily 0.1 mg/kg SC injections of G-CSF and on the fifth day the mice were injected with AMD3100. Control group 8 consisted of ICR mice and received the same treatment as Control group 2. Study groups 3, 4, 5, and 6 received a single SC injection of CBLB612 at 1.2; 0.4; 0.13; and 0.04 mg/kg doses, respectively, at 72 hours before blood collection. Group 7 received a single SC injection of 1.2 mg/kg CBLB612 at 24 hours before blood collection. Study group 9 was treated with four daily SC injections of 0.1 mg/kg G-CSF, a single SC injection of 1.2 mg/kg CBLB612 at 72 hours before blood collection, and a single SC injection of 5 mg/kg AMD3100 one hour before euthanasia at the fifth day after the first G-CSF injection.

[2] = test system: hematopoietic stem and progenitor cells in bone marrow; assay: CBLB612 dose dependence of HSC number in mouse bone marrow (Example 6); assay type: in vivo, C57Bl/6NHsd mice; conditions: average, regimen per group b224: AMD3100 5 mg/kg SC 1 h before euthanasia, G-CSF four daily 0.1 mg/kg SC, 612 1.2 mg/kg SC 72 h
Procedure: as §1, §2

[3] = test system: hematopoietic stem and progenitor cells in peripheral blood; assay: Kinetics of HSC mobilization after CBLB612, peripheral blood of C57Bl mice (Example 7); assay type: in vivo
Procedure: (§3) The following mobilization of HSC and progenitor cells from the bone marrow to peripheral blood after CBLB612 injection. […] The doses were calculated as intended dose/kg of average weight. The adjustment of a dose was accomplished by adjusting the concentration of an article for injection while keeping the injection volume constant. According to Table 13, with the exception of the PBS control group 8, all groups received a 5 mg/kg dose of AMD3100 one hour before euthanasia. Control group 7 received a 6.5 mg/kg does of AMD3100. Negative control group 8 received a single SC injection of 200 μl PBS one hour before blood collection. Study groups 1-6 received single SC injections of CBLB12 at 2 mg/kg at different time points prior to blood collection. Positive control group 9 received four daily SC injections of 0.1 mg/kg G-CSF.

[4] = test system: hematopoietic stem and progenitor cells in bone marrow; assay: Kinetics of HSC number after CBLB612, bone marrow of C57Bl mice (Example 7); assay type: in vivo
Procedure: as §3

[5] = test system: C57/B6 mice irradiated with 9 Gy; assay: Survival of lethally irradiated mice transfused with PWBC from treated donor mice (Example 2); assay type: in vivo; conditions: recipients irradiated 9 Gy, transfused with PWBC from donor mice treated with the compound; 5 mice at Day 0
Procedure: Blood transfused from lipopeptide-treated mice is capable of protecting recipient mice from the effects of radiation. […] To control for the effects of CBLB612, a group of mice was injected daily for four consecutive days with 100 μg/kg G-CSF, or with PBS.
Following the last injection, blood was collected from the treated mice by cardiac puncture and combined for each group (i.e., PBS negative controls, G-CSF positive controls, and CBLB612 experimental). Next, peripheral white blood cells (PWBC) were fractionated, and 200 μL of fractionated PWBC were injected into the tail veins of irradiated recipient mice. The amount of transfused PWBC was equivalent to the amount from one mouse.
Mice from the five test groups (i.e., PBS-, G-CSF-, and CBLB612-treated mouse blood transfusions, no transfusion, and bone marrow injection), previously irradiated with 9 Gy (a lethal dose for C57/B6 mice) for 2 h prior to transfusion, were observed and their survival rate assessed following transfusion.

[6] = AMD3100 5 mg/kg SC 1 h before collection
[7] = AMD3100 + 30%: 6.5 mg/kg SC 1 h before collection

For `c1cc(CN2CCCNCCNCCCNCC2)ccc1CN1CCCNCCNCCCNCC1` [AMD3100], the “7AAD−/LIN−” value [1] was 254725, the KSL [1] was 238 and the “KSL/CD34+” value [1] was 174. For the same molecule, the “KSL/CD34−” value [1] was 72, the “LIN−/kit−/sca1+” value [1] was 40971 and the “LIN−/sca1−/kit+” value [1] was 1104. For the same molecule, the “total number of WBC” value [1] was 629.95 10^4/ml, the “7AAD−/LIN−” value [2] was 2.39 ×10^6 and the KSL [2] was 1.37 ×10^4. The “KSL/CD34+” value [2] was 1.25 ×10^4, the “KSL/CD34−” value [2] was 1.24 ×10^3 and the “LIN−/kit−/sca1+” value [2] was 15.74 ×10^4. For the same molecule, the “LIN−/sca1−/kit+” value [2] was 13.26 ×10^4, the “total number of cells” value [2] was 4.47 10^7 and the “7AAD−/LIN− (average number)” value [3, 6] was 421616. The “KSL (average number)” value [3, 6] was 360, the “KSL/CD34+ (average number)” value [3, 6] was 308 and the “KSL/CD34− (average number)” value [3, 6] was 56. For the same molecule, the “LIN−/kit−/sca1+ (average number)” value [3, 6] was 23142, the “LIN−/sca1−/kit+ (average number)” value [3, 6] was 1932 and the “total number of WBC (average)” value [3, 6] was 962.40 10^4/ml. The “7AAD−/LIN− (average number)” value [3, 7] was 302644, the “KSL (average number)” value [3, 7] was 907 and the “KSL/CD34+ (average number)” value [3, 7] was 856. The “KSL/CD34− (average number)” value [3, 7] was 63, the “LIN−/kit−/sca1+ (average number)” value [3, 7] was 30938 and the “LIN−/sca1−/kit+ (average number)” value [3, 7] was 1816. For the same molecule, the “total number of WBC (average)” value [3, 7] was 1111.05 10^4/ml, the “7AAD−/LIN− (average number)” value [4, 6] was 2.44 ×10^6 and the “KSL (average number)” value [4, 6] was 17184. The “KSL/CD34+ (average number)” value [4, 6] was 14743, the “KSL/CD34− (average number)” value [4, 6] was 2689 and the “LIN−/kit−/sca1+ (average number)” value [4, 6] was 206061. The “LIN−/sca1−/kit+ (average number)” value [4, 6] was 163895, the “total number of cells (average)” value [4, 6] was 4.88 10^7 and the “7AAD−/LIN− (average number)” value [4, 7] was 2.26 ×10^6. The “KSL (average number)” value [4, 7] was 41791, the “KSL/CD34+ (average number)” value [4, 7] was 40873 and the “KSL/CD34− (average number)” value [4, 7] was 1084. The “LIN−/kit−/sca1+ (average number)” value [4, 7] was 148328, the “LIN−/sca1−/kit+ (average number)” value [4, 7] was 281722 and the “total number of cells (average)” value [4, 7] was 3.65 10^7.

B1: G-CSF: granulocyte-colony stimulating factor, a cytokine; positive control (protein, UniProt P09919 31-207, looked up)
Granulocyte …: TPLGPASSLPQSFLLKCLEQVRKIQGDGAALQEKLVSECATYKLCHPEELVLLGHSLGIPWAPLSSCPSQALQLAGCLSQLHSGLFLYQGLLQALEGISPELGPTLDTLQLDVADFATTIWQQMEELGMAPALQPTQGAMPAFASAFQRRAGGVLVASHLQSFLEVSYRVLRHLAQP
With B1 the “Number of Surviving Mice, Day 21” value [5] was 5, the “Number of Surviving Mice, Day 22” value [5] was 5 and the “Number of Surviving Mice, Day 23” value [5] was 5. For the same molecule, the “Number of Surviving Mice, Day 24” value [5] was 5.
